Laboratory results from ChEMBL document CHEMBL4622882, “Discovery of a novel indole pharmacophore for the irreversible inhibition of myeloperoxidase (MPO)” (Bioorg Med Chem, 2020).
In brackets after ≈: the same amount, converted by molar mass. Activity calls are given as the source filed them. The rule behind the calls is not given here.

Experiments:
Myeloperoxidase [1] = target: T1, Myeloperoxidase (Homo sapiens, UniProt P05164); test: Inhibition of myeloperoxidase (unknown origin)
T1 sequence (P05164 whole entry): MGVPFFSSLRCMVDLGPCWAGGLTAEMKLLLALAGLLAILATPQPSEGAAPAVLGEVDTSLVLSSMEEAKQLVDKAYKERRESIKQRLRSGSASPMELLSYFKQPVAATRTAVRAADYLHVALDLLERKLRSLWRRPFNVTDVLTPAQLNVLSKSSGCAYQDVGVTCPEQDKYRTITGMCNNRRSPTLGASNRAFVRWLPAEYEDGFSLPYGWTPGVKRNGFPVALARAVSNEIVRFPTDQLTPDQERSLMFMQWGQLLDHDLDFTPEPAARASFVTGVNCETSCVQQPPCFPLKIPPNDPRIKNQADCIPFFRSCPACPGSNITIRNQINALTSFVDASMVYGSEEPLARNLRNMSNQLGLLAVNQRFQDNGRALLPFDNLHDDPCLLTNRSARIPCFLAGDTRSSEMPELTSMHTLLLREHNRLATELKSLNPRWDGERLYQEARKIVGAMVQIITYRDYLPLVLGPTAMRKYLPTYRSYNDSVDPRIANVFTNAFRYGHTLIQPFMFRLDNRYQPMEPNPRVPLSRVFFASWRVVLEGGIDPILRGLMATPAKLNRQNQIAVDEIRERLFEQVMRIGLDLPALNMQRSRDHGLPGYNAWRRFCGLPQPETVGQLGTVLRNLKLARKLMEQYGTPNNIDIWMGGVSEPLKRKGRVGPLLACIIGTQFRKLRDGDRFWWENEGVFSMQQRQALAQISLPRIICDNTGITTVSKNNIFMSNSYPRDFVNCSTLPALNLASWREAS

[2] = target: T2, Myeloperoxidase (Homo sapiens) (UniProt P05164); test: Inhibition of myeloperoxidase (unknown origin) assessed as partition ratio by Amplex red based fluorescence assay
T2 sequence (whole entry): T1 sequence (P05164 whole entry)

Thyroid peroxidase = target: T3, Thyroid peroxidase (Homo sapiens, UniProt P07202); test: Inhibition of thyroid peroxidase (unknown origin)
T3 sequence (P07202 whole entry): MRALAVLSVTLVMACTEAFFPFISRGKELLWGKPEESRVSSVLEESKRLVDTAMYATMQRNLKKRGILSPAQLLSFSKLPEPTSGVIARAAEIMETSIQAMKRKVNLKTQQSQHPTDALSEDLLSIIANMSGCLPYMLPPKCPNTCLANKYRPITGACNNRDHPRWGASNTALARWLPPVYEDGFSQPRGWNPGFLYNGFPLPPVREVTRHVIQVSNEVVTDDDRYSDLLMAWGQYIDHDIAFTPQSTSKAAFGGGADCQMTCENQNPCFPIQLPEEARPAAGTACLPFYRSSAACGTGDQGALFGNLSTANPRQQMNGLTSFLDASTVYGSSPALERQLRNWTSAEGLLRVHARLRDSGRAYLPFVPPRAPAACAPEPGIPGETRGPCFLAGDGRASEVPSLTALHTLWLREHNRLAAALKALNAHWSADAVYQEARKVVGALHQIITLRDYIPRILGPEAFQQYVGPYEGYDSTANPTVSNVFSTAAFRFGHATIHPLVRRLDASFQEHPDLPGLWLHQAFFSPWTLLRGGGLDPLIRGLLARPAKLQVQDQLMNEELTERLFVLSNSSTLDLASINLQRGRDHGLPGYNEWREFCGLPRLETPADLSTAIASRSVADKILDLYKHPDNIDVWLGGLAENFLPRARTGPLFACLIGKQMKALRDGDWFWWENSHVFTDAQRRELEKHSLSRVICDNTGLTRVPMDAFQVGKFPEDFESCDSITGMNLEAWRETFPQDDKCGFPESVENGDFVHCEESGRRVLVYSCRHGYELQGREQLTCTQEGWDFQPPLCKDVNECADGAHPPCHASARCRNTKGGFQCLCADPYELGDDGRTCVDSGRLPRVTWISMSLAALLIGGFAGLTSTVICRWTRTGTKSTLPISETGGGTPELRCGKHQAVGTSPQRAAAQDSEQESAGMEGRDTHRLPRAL

Myeloperoxidase [3] = target: T1, Myeloperoxidase; test: Inhibition of human plasma myeloperoxidase
[4] = target: Voltage-gated inwardly rectifying potassium channel KCNH2 (Homo sapiens, UniProt Q12809); test: Inhibition of human ERG
[5] = Solubility of the compound at pH 6.8; format: physicochemical; details: buffer
[6] = target: T2, Myeloperoxidase (Homo sapiens); test: Inhibition of myeloperoxidase (unknown origin) assessed as ratio of Kinact to Ki
Cytochrome P450 3A4 = Cytochrome P450 3A4 (Homo sapiens, UniProt P08684); test: Inhibition of CYP3A4 (unknown origin); format: ADME
Cytochrome P450 2D6 = Cytochrome P450 2D6 (Homo sapiens, UniProt P10635); test: Inhibition of CYP2D6 (unknown origin); format: ADME
[7] = Cmax in mouse at 10 mg/kg, po; format: ADME, organism-based; parameters: dose 10 mg/kg, route oral; details: in vivo
[8] = Oral bioavailability in mouse at 10 mg/kg; format: ADME, organism-based; details: in vivo
[9] = Plasma clearance in mouse at 1 mg/kg, iv; format: ADME, organism-based
[10] = Elimination half life in mouse at 1 mg/kg, iv; format: ADME, organism-based; details: in vivo, read-out: beta t1/2 (converted)
[11] = AUCinfinity in mouse at 10 mg/kg, po; format: ADME, organism-based; parameters: dose 10 mg/kg, route oral, time infinity; details: in vivo
[12] = Volume of distribution at steady state in mouse at 1 mg/kg, iv; format: ADME, organism-based; details: in vivo, read-out: Vdss
[13] = Unbound Cmax in mouse at 10 mg/kg, po; format: ADME, organism-based; details: in vivo
[14] = Plasma protein binding in mouse at 1mg/kg, iv or 10 mg/kg, po; format: ADME, organism-based; details: read-out: PPB (converted)
[15] = target: T2, Myeloperoxidase (Homo sapiens); test: Irreversible inhibition of human myeloperoxidase using H2O2 as substrate at 200 fold dilution and measured after 72 hrs by dialysis method
Mus musculus = test: Antiinflammatory activity against mouse model of thioglycolate/zymosan A induced peritonitis assessed as decrease in myeloperoxidase activity at 90 mg/kg, po pretreated for 4 hrs followed by zymosan A stimulation by ELISA; format: functional; parameters: scale not given: the % may be the effect or the level left
[16] = Plasma protein binding in human; format: ADME, cell-free; details: read-out: PPB (converted)
[17] = Plasma protein binding in mouse at 0.5 mg/kg, iv or 10 mg/kg, po; format: ADME, organism-based; details: read-out: PPB (converted)
[18] = Volume of distribution at steady state in mouse at 0.5 mg/kg, iv; format: ADME, organism-based; details: in vivo, read-out: Vdss
[19] = Elimination half life in mouse at 0.5 mg/kg, iv; format: ADME, organism-based; details: in vivo, read-out: beta t1/2 (converted)
[20] = target: T4, Thyroid peroxidase (Homo sapiens) (UniProt P07202); test: Irreversible inhibition of thyroid peroxidase (unknown origin) at 1000 fold dilution
T4 sequence (whole entry): T3 sequence (P07202 whole entry)

[21] = target: T2, Myeloperoxidase (Homo sapiens); test: Irreversible inhibition of human myeloperoxidase assessed as residual activity using H2O2 as substrate at 200 fold dilution and measured after 72 hrs by dialysis method
[22] = target: T2, Myeloperoxidase (Homo sapiens); test: Irreversible inhibition of myeloperoxidase (unknown origin) at 1000 fold dilution
Armoracia rusticana = test: Irreversible inhibition of horseradish peroxidase at 1000 fold dilution

Chain of Cytochrome P450 2D6 (P10635 whole entry): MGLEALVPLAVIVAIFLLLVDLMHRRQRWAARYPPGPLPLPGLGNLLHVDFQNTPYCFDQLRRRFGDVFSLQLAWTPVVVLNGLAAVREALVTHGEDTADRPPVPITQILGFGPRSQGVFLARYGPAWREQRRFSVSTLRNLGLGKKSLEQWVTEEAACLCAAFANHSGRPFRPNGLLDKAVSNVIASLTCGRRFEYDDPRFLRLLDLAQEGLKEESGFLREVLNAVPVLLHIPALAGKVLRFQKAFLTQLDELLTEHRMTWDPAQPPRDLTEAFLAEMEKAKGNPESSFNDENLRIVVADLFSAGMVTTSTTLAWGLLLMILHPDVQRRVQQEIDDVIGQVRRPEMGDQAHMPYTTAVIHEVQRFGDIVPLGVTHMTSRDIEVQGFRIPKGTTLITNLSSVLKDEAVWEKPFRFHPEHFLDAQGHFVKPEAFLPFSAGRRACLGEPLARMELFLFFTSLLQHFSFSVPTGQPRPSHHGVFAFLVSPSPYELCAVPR
Chain of Voltage-gated inwardly rectifying potassium channel KCNH2 (Q12809 whole entry): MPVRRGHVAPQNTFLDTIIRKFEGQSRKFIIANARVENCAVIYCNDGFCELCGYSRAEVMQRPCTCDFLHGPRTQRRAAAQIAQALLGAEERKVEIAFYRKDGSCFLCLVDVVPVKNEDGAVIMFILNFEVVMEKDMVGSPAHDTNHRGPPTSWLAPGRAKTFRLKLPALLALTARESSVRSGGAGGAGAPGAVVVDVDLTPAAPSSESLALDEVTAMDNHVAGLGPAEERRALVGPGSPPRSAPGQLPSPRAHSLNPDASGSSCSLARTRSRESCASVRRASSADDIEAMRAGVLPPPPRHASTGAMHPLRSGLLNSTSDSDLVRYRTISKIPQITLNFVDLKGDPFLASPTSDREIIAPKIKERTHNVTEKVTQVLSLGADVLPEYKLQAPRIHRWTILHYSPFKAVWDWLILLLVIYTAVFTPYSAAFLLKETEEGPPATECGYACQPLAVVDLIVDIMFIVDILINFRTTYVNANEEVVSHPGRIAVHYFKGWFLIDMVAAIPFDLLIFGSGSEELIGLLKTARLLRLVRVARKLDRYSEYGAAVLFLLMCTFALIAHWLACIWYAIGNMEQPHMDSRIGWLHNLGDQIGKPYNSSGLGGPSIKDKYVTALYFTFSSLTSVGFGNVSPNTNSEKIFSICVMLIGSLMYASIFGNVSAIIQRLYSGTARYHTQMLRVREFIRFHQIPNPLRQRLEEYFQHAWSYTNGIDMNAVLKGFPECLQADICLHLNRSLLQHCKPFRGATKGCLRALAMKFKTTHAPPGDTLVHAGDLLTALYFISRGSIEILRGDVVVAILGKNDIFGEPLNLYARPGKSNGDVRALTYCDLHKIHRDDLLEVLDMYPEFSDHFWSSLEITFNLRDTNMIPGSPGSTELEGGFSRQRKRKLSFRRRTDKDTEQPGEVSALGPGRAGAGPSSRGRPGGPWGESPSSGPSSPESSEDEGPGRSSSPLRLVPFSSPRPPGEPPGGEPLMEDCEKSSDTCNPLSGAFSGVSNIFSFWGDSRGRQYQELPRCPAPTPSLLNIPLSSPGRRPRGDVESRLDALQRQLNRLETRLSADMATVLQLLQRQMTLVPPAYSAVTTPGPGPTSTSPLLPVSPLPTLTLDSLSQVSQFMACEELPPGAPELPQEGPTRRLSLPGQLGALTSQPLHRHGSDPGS
Chain of Cytochrome P450 3A4 (P08684 whole entry): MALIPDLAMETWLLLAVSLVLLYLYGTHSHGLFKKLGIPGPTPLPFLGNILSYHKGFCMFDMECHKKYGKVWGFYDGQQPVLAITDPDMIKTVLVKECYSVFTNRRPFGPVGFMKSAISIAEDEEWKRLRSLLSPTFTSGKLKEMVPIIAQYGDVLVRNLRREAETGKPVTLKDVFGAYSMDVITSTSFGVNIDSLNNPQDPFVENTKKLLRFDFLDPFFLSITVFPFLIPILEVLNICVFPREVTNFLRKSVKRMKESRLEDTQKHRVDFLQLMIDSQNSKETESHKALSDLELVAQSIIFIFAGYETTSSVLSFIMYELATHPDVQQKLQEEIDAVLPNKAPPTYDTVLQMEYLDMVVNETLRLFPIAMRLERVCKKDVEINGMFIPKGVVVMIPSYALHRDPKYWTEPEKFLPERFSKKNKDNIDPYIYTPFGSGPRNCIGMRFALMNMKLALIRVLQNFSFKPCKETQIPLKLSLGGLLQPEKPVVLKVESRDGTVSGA

Structure (SMILES) | IC50 (Myeloperoxidase [1]) | Ratio [2] | IC50 (Thyroid peroxidase) | IC50 (Myeloperoxidase [3]) | IC50 [4] | solubility [5] | Ratio [6] | IC (Cytochrome P450 3A4) | IC (Cytochrome P450 2D6) | also measured
NC(=O)Cn1cc(-c2ccc3cc[nH]c3c2)c(C(F)(F)F)n1 | 2 µM | > 200 | > 30 µM | – | – | – | – | – | – | –
NCCCCn1cc(-c2ccc3cc[nH]c3c2)c(C(F)(F)F)n1 | 0.33 µM | 42 | > 30 µM | 0.9 µM | 1.9 µM | 73 µM (≈ 23.5 µg/mL) | 61000 M⁻¹ s⁻¹ | > 50 µM | 43 µM | –
CN(C)Cc1ccc(-n2cc(-c3ccc4cc[nH]c4c3)c3c(Cl)ccnc32)cc1 | 0.12 µM | 3.7 | 5.3 µM | 2.6 µM | 1.7 µM | 21 µM (≈ 8.42 µg/mL) | 210000 M⁻¹ s⁻¹ | 17 µM | 21 µM | Cmax [7]: 502 nM; bioavailability [8]: 61%; clearance [9]: 64.7 mL/min/kg; half-life [10]: 2.6 h; AUC(0-inf) [11]: 2.49 µM·h; Vd [12]: 9.8 L/kg; fCmax [13]: 2 nM; fraction unbound [14]: 0.004; inhibition [15]: Active; Activity (Mus musculus): 50%
N[C@@H](c1ccc(-n2cc(-c3ccc4cc[nH]c4c3)c(C(F)(F)F)n2)cc1)C(F)(F)F | 0.42 µM | 17 | > 30 µM | 18 µM | > 30 µM | 21 µM (≈ 8.91 µg/mL) | 122000 M⁻¹ s⁻¹ | 17 µM | 21 µM | –
NC[C@H]1C[C@H](n2cc(-c3ccc4cc[nH]c4c3)c(C(F)(F)F)n2)C1 | 0.17 µM | 6.7 | > 30 µM | – | – | – | – | – | – | –
O=C(O)CCn1cc(-c2ccc3cc[nH]c3c2)c(C(F)(F)F)n1 | 5.2 µM | > 200 | – | – | – | – | – | – | – | –
N[C@@H]1CC[C@@H](n2cc(-c3ccc4cc[nH]c4c3)c(C(F)(F)F)n2)C1 | 0.07 µM | 3.1 | > 30 µM | 0.17 µM | 17 µM | 587 µM (≈ 196 µg/mL) | 230000 M⁻¹ s⁻¹ | 34 µM | > 50 µM | Cmax [7]: 1990 nM; bioavailability [8]: 40%; clearance [9]: 16.1 mL/min/kg; fraction unbound [16]: 0.034; fraction unbound [17]: 0.027; AUC(0-inf) [11]: 22.9 µM·h; Vd [18]: 2.1 L/kg; half-life [19]: 4.5 h
FC(F)(F)c1nn(-c2ccc(Cc3nc[nH]n3)cc2)cc1-c1ccc2cc[nH]c2c1 | 0.25 µM | 12 | 5.9 µM | 23 µM | > 30 µM | 11 µM (≈ 4.49 µg/mL) | 106000 M⁻¹ s⁻¹ | 6.9 µM | 0.5 µM | –
NCc1ccc(-n2cc(-c3ccc4cc[nH]c4c3)c(C(F)(F)F)n2)cc1 | 0.03 µM | 0.4 | > 30 µM | 0.36 µM | 4 µM | 62 µM (≈ 22.1 µg/mL) | 430000 M⁻¹ s⁻¹ | 3.8 µM | 1.4 µM | –
Nc1ncnc2c1c(-c1ccc3cc[nH]c3c1)cn2-c1ccc(OCCNCCO)cc1 | 0.22 µM | 141 | 30 µM | – | 2.8 µM | 46 µM (≈ 19.7 µg/mL) | 23000 M⁻¹ s⁻¹ | > 50 µM | > 50 µM | inhibition [20]: inactive; Activity [21]: > 95%; inhibition [22]: Active; inhibition (Armoracia rusticana): inactive
NC(=O)CCn1cc(-c2ccc3cc[nH]c3c2)c(C(F)(F)F)n1 | 4.2 µM | > 200 | > 30 µM | – | – | – | – | – | – | –
